Assay results taken from patent US20240287007A1, “N-(1,3,4-OXADIAZOL-2-YL)PHENYLCARBOXAMIDES AS HERBICIDES” (BAYER AKTIENGESELLSCHAFT, priority 2021, published 2024).

What was measured:
Assay type in all cases: in vivo
[1] = tested on: POLCO (Polygonum convolvulus); experiment: Pre-emergence herbicidal effect against POLCO; settings: scored visually after 3 weeks
From the text: (§1) Seeds of monocotyledonous and dicotyledonous weed plants and crop plants are laid out in sandy loam soil in wood-fiber pots and covered with soil. The compounds of the invention, formulated in the form of wettable powders (WP) or as emulsion concentrates (EC), are then applied to the surface of the covering soil as aqueous suspension or emulsion at a water application rate equating to 600 to 800 l/ha with addition of 0.2% wetting agent. After the treatment, the pots are placed in a greenhouse and kept under good growth conditions for the trial plants. The damage to the test plants is scored visually after a test period of 3 weeks by comparison with untreated controls (herbicidal activity in percent (%): 100% activity=the plants have died, 0% activity=like control plants).

[2] = tested on: PHBPU (Pharbitis purpurea); experiment: Pre-emergence herbicidal effect against PHBPU; settings: scored visually after 3 weeks
From the text: as §1

[3] = tested on: ALOMY (Alopecurus myosuroides); experiment: Pre-emergence herbicidal effect against ALOMY; settings: 80 g/ha, scored visually after 3 weeks
From the text: as §1

LOLRI (Lolium rigidum) [4] = experiment: Pre-emergence herbicidal effect against LOLRI; settings: scored visually after 3 weeks
From the text: as §1

VIOTR (Viola tricolor) [5] = experiment: Post-emergence herbicidal action against VIOTR; settings: visual assessment after about 3 weeks
Protocol: (§2) Seeds of monocotyledonous and dicotyledonous weed and crop plants are laid out in sandy loam soil in wood-fiber pots, covered with soil and cultivated in a greenhouse under good growth conditions. 2 to 3 weeks after sowing, the trial plants are treated at the one-leaf stage. The compounds of the invention, formulated in the form of wettable powders (WP) or as emulsion concentrates (EC), are then sprayed onto the green parts of the plants as aqueous suspension or emulsion at a water application rate equating to 600 to 800 l/ha with addition of 0.2% wetting agent. After the test plants have been left to stand in the greenhouse under optimal growth conditions for about 3 weeks, the action of the preparations is assessed visually in comparison to untreated controls (herbicidal action in percent (%): 100% activity=the plants have died, 0% activity=like control plants).

[6] = tested on: AMARE (Amaranthus retroflexus); experiment: Post-emergence herbicidal action against AMARE; settings: visual assessment after about 3 weeks
Protocol: as §2

VERPE (Veronica persica) [7] = experiment: Post-emergence herbicidal action against VERPE; settings: visual assessment after about 3 weeks
Protocol: as §2

SETVI (Setaria viridis) [8] = experiment: Post-emergence herbicidal action against SETVI; settings: visual assessment after about 3 weeks
Protocol: as §2

SETVI (Setaria viridis) [9] = experiment: Pre-emergence herbicidal effect against SETVI; settings: scored visually after 3 weeks
From the text: as §1

[10] = tested on: MATIN (Matricaria inodora); experiment: Post-emergence herbicidal action against MATIN; settings: visual assessment after about 3 weeks
Protocol: as §2

KCHSC (Kochia scoparia) [11] = experiment: Post-emergence herbicidal action against KCHSC; settings: visual assessment after about 3 weeks
Protocol: as §2

AVEFA (Avena fatua) = experiment: Pre-emergence herbicidal effect against AVEFA; settings: scored visually after 3 weeks
From the text: as §1

[12] = tested on: DIGSA (Digitaria sanguinalis); experiment: Post-emergence herbicidal action against DIGSA; settings: visual assessment after about 3 weeks
Protocol: as §2

[13] = tested on: ECHCG (Echinochloa crus-galli); experiment: Pre-emergence herbicidal effect against ECHCG; settings: scored visually after 3 weeks
From the text: as §1

LOLRI (Lolium rigidum) [14] = experiment: Post-emergence herbicidal action against LOLRI; settings: visual assessment after about 3 weeks
Protocol: as §2

[15] = tested on: DIGSA (Digitaria sanguinalis); experiment: Pre-emergence herbicidal effect against DIGSA; settings: scored visually after 3 weeks
From the text: as §1

VERPE (Veronica persica) [16] = experiment: Pre-emergence herbicidal effect against VERPE; settings: 80 g/ha, scored visually after 3 weeks
From the text: as §1

VIOTR (Viola tricolor) [17] = experiment: Pre-emergence herbicidal effect against VIOTR; settings: scored visually after 3 weeks
From the text: as §1

KCHSC (Kochia scoparia) [18] = experiment: Pre-emergence herbicidal effect against KCHSC; settings: scored visually after 3 weeks
From the text: as §1

[19] = tested on: MATIN (Matricaria inodora); experiment: Pre-emergence herbicidal effect against MATIN; settings: scored visually after 3 weeks
From the text: as §1

[20] = tested on: AMARE (Amaranthus retroflexus); experiment: Pre-emergence herbicidal effect against AMARE; settings: scored visually after 3 weeks
From the text: as §1

[21] = tested on: POLCO (Polygonum convolvulus); experiment: Post-emergence herbicidal action against POLCO; settings: visual assessment after about 3 weeks
Protocol: as §2

[22] = tested on: ABUTH (Abutylon threophrasti); experiment: Pre-emergence herbicidal effect against ABUTH; settings: scored visually after 3 weeks
From the text: as §1

[23] = tested on: PHBPU (Pharbitis purpurea); experiment: Post-emergence herbicidal action against PHBPU; settings: visual assessment after about 3 weeks
Protocol: as §2

[24] = tested on: ABUTH (Abutylon threophrasti); experiment: Post-emergence herbicidal action against ABUTH; settings: visual assessment after about 3 weeks
Protocol: as §2

CS(=O)(=O)c1c(OC(F)(F)F)ccc(C(=O)Nc2nnco2)c1Cl [Example 1-35, 2-chloro-3-(methylsulfonyl)-N-(1,3,4-oxadiazol-2-yl)-4-(trifluoromethoxy)benzamide]
Pre-emergence effect at 20 g/ha against POLCO in % ([1]; 20 g/ha): 90%
Pre-emergence effect at 80 g/ha against POLCO in % ([1]; 80 g/ha): 100%
Pre-emergence effect at 20 g/ha against PHBPU in % ([2]; 20 g/ha): 80%
Pre-emergence effect at 80 g/ha against PHBPU in % ([2]; 80 g/ha): 100%
Pre-emergence effect at 80 g/ha against ALOMY in % [3]: 80%
Pre-emergence effect at 20 g/ha against LOLRI in % (LOLRI (Lolium rigidum) [4]; 20 g/ha): 80%
Pre-emergence effect at 80 g/ha against LOLRI in % (LOLRI (Lolium rigidum) [4]; 80 g/ha): 90%
Post-emergence effect at 20 g/ha against VIOTR in % (VIOTR (Viola tricolor) [5]; 20 g/ha): 100%
Post-emergence effect at 80 g/ha against VIOTR in % (VIOTR (Viola tricolor) [5]; 80 g/ha): 100%
Post-emergence effect at 20 g/ha against AMARE in % ([6]; 20 g/ha): 90%
Post-emergence effect at 80 g/ha against AMARE in % ([6]; 80 g/ha): 90%
Post-emergence effect at 20 g/ha against VERPE in % (VERPE (Veronica persica) [7]; 20 g/ha): 90%
Post-emergence effect at 80 g/ha against VERPE in % (VERPE (Veronica persica) [7]; 80 g/ha): 100%
Post-emergence effect at 20 g/ha against SETVI in % (SETVI (Setaria viridis) [8]; 20 g/ha): 100%
Post-emergence effect at 80 g/ha against SETVI in % (SETVI (Setaria viridis) [8]; 80 g/ha): 100%
Pre-emergence effect at 20 g/ha against SETVI in % (SETVI (Setaria viridis) [9]; 20 g/ha): 100%
Pre-emergence effect at 80 g/ha against SETVI in % (SETVI (Setaria viridis) [9]; 80 g/ha): 100%
Post-emergence effect at 20 g/ha against MATIN in % ([10]; 20 g/ha): 90%
Post-emergence effect at 80 g/ha against MATIN in % ([10]; 80 g/ha): 100%
Post-emergence effect at 20 g/ha against KCHSC in % (KCHSC (Kochia scoparia) [11]; 20 g/ha): 100%
Post-emergence effect at 80 g/ha against KCHSC in % (KCHSC (Kochia scoparia) [11]; 80 g/ha): 100%
Pre-emergence effect at 20 g/ha against AVEFA in % (AVEFA (Avena fatua); 20 g/ha): 90%
Pre-emergence effect at 80 g/ha against A VEFA in % (AVEFA (Avena fatua); 80 g/ha): 100%
Post-emergence effect at 20 g/ha against DIGSA in % ([12]; 20 g/ha): 90%
Post-emergence effect at 80 g/ha against DIGSA in % ([12]; 80 g/ha): 100%
Pre-emergence effect at 20 g/ha against ECHCG in % ([13]; 20 g/ha): 100%
Pre-emergence effect at 80 g/ha against ECHCG in % ([13]; 80 g/ha): 100%
Post-emergence effect at 80 g/ha against LOLRI in % (LOLRI (Lolium rigidum) [14]): 80%
Pre-emergence effect at 20 g/ha against DIGSA in % ([15]; 20 g/ha): 100%
Pre-emergence effect at 80 g/ha against DIGSA in % ([15]; 80 g/ha): 100%
Pre-emergence effect at 80 g/ha against VERPE in % (VERPE (Veronica persica) [16]): 100%
Pre-emergence effect at 20 g/ha against VIOTR in % (VIOTR (Viola tricolor) [17]; 20 g/ha): 100%
Pre-emergence effect at 80 g/ha against VIOTR in % (VIOTR (Viola tricolor) [17]; 80 g/ha): 100%
Pre-emergence effect at 20 g/ha against KCHSC in % (KCHSC (Kochia scoparia) [18]; 20 g/ha): 100%
Pre-emergence effect at 80 g/ha against KCHSC in % (KCHSC (Kochia scoparia) [18]; 80 g/ha): 100%
Pre-emergence effect at 20 g/ha against MATIN in % ([19]; 20 g/ha): 100%
Pre-emergence effect at 80 g/ha against MATIN in % ([19]; 80 g/ha): 100%
Pre-emergence effect at 20 g/ha against AMARE in % ([20]; 20 g/ha): 100%
Pre-emergence effect at 80 g/ha against AMARE in % ([20]; 80 g/ha): 100%
Post-emergence effect at 20 g/ha against POLCO in % ([21]; 20 g/ha): 80%
Post-emergence effect at 80 g/ha against POLCO in % ([21]; 80 g/ha): 100%
Pre-emergence effect at 20 g/ha against ABUTH in % ([22]; 20 g/ha): 90%
Pre-emergence effect at 80 g/ha against ABUTH in % ([22]; 80 g/ha): 100%
Post-emergence effect at 20 g/ha against PHBPU in % ([23]; 20 g/ha): 90%
Post-emergence effect at 80 g/ha against PHBPU in % ([23]; 80 g/ha): 100%
Post-emergence effect at 20 g/ha against ABUTH in % ([24]; 20 g/ha): 80%
Post-emergence effect at 80 g/ha against ABUTH in % ([24]; 80 g/ha): 90%
